# Target: T1, CD80-CD28 interaction (Homo sapiens, UniProt P33681)
# T1 sequence (P33681 35-242 limits assumed): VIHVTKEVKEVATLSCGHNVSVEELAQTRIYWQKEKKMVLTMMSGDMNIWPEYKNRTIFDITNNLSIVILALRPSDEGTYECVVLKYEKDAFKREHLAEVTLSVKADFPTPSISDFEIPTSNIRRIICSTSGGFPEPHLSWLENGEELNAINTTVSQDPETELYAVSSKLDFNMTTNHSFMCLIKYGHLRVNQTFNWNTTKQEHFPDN
# Assay: Homogenous Time Resolved Fluorescence (HTRF) assay, cell free
# Type: binding
# Details: cell free HTRF assay; concentration series 100 μM-1.7 nM; 4 hours at room temperature; read-out: Activity (EC50 in the HTRF assay)
# Protocol: Homogenous Time Resolved Fluorescence Assay
# The examples described above were tested in a cell free Homogenous Time Resolved Fluorescence (HTRF) assay to determine their activity as inhibitors of the CD80-CD28 interaction.
# In the assay, europium and allophycocyanin (APC) are associated with CD28 and CD80 indirectly (through antibody linkers) to form a complex, which brings the europium and APC into close proximity to generate a signal. The complex comprises the following six proteins: fluorescent label 1, linker antibody 1, CD28 fusion protein, CD80 fusion protein, linker antibody 2, and fluorescent label 2. The table below describes these reagents in greater detail.
# On formation of the complex, europium and APC are brought into proximity and a signal is generated.
# Non-specific interaction was measured by substituting a mouse Fab fragment (C215) for the CD80 mouse Fab fragment fusion protein (1.9 μg/ml). The assay was carried out in black 384 well plates in a final volume of 30 μl. Assay buffer: 50 mM Tris-HCl, 150 mM NaCl pH7.8, containing 0.1% BSA (w/v) added just prior to use.
# Compounds were added to the above reagents in a concentration series ranging between 100 μM-1.7 nM. The reaction was incubated for 4 hours at room temperature. Dual measurements were made using a Wallac Victor 1420 Multilabel Counter. First measurement: excitation 340 nm, emission 665 nm, delay 50 μs, window time 200 μs. second measurement: excitation 340 nm, emission 615 nm, delay 50 μs, window time 200 μs. Counts were automatically corrected for fluorescence crossover, quenching and background. The EC50 activities of compounds tested are recorded as: EC50:*=>10 μM,**=1-10 μM,***=<1 μM.
row,SMILES,EC50 [µM]
1,CC(NC(=O)Nc1ccc(-n2[nH]c3c(nnc4ccccc43)c2=O)cc1)C1CCCCC1 (centres unmarked) [Example 261],> 10
2,CCCCN(CCCC)CCCNC(=O)c1ccc(-n2[nH]c3c(nnc4ccc(F)cc43)c2=O)cc1 [Example 329],< 1
3,CCN(CC)CCNCCNC(=O)c1ccc(-n2[nH]c3c(nnc4ccccc43)c2=O)cc1 [Example 280],< 1
4,CNCCCNC(=O)c1ccc(-n2[nH]c3c(nnc4c(F)ccc(F)c43)c2=O)cc1 [Example 428],< 1
5,CC1CCCCN1CCCNC(=O)c1ccc(-n2[nH]c3c(nnc4ccc(F)cc43)c2=O)cc1 (centres unmarked) [Example 332],< 1
6,CC(=O)NCCCCNC(=O)Nc1ccc(-n2[nH]c3c(nnc4ccccc43)c2=O)cc1 [Example 222],< 1
7,O=C(NCCCc1ccccc1)Nc1ccc(-n2[nH]c3c(nnc4ccccc43)c2=O)cc1 [Example 291],> 10
8,O=C(NCCc1c(F)cccc1Cl)c1ccc(-n2[nH]c3c(nnc4c(F)cccc43)c2=O)cc1 [Example 369],1 to 10
9,CCCCN(CCCC)CCCNC(=O)c1ccc(-n2[nH]c3c(nnc4cccc(F)c43)c2=O)cc1 [Example 398],< 1
10,CN(C)CCCNC(=O)c1ccc(-n2[nH]c3c(nnc4c(F)cccc43)c2=O)cc1 [Example 232],< 1
11,CC1(C)CC(NC(=O)c2ccc(-n3[nH]c4c(nnc5cccc(F)c54)c3=O)cc2)CC(C)(C)N1 [Example 403],< 1
12,O=C(NCCCCN1CCSCC1)c1ccc(-n2[nH]c3c(nnc4c(F)cccc43)c2=O)cc1 [Example 419],< 1
13,O=C(NCCCCN1CCCC1)c1ccc(-n2[nH]c3c(nnc4c(F)cc(F)cc43)c2=O)cc1 [Example 416],< 1
14,O=C(NC1CCN(Cc2ccccc2)CC1)c1ccc(-n2[nH]c3c(nnc4ccc(F)cc43)c2=O)cc1 [Example 328],< 1

# The remaining lines, values ahead:
row,EC50 [µM],SMILES
1,< 1,O=C(NCc1ccco1)c1ccc(-n2[nH]c3c(nnc4ccccc43)c2=O)cc1 [Example 242]
2,> 10,CC(C)(C)OC(=O)N1CCC(CNC(=O)Nc2ccc(-n3[nH]c4c(nnc5ccccc54)c3=O)cc2)CC1 [Example 264]
3,1 to 10,Cc1ccc(CCNC(=O)c2ccc(-n3[nH]c4c(nnc5c(F)cccc54)c3=O)cc2)cc1 [Example 362]
4,< 1,O=C(NC1CCC1)c1ccc(-n2[nH]c3c(nnc4c(F)cccc43)c2=O)cc1 [Example 424]
5,< 1,O=C(NCCNCc1ccccc1)c1ccc(-n2[nH]c3c(nnc4c(F)cccc43)c2=O)cc1 [Example 347]
6,< 1,CN1C(C)(C)CC(NC(=O)c2ccc(-n3[nH]c4c(nnc5c(F)ccc(F)c54)c3=O)cc2)CC1(C)C [Example 431]

# Same assay, conditions: cell-free HTRF, compound concentration series 100 μM-1.7 nM, 4 hours at room temperature; read-out: Activity (EC50 in the HTRF assay)
row,SMILES,EC50 [µM]
1,O=C(NCCCCCO)Nc1ccc(-n2[nH]c3c(nnc4ccccc43)c2=O)cc1 [Example 151],1 to 10
2,O=C(NCCOCCO)c1ccc(-n2[nH]c3c(nnc4ccccc43)c2=O)cc1 [Example 50],1 to 10
3,CC[C@H](C)NC(=O)c1ccc(-n2[nH]c3c(nnc4ccccc43)c2=O)cc1 [Example 71],< 1
4,O=CCCNC(=O)Nc1ccc(-n2[nH]c3c(nnc4ccccc43)c2=O)cc1 [Example 170],> 10
5,CNCCNC(=O)c1ccc(-n2[nH]c3c(nnc4ccccc43)c2=O)cc1 [Example 48],< 1
6,CC(C)(C)OC(=O)N1CCN(CCNC(=O)c2ccc(-n3[nH]c4c(nnc5ccccc54)c3=O)cc2)CC1 [Example 101],< 1
7,CNCCNC(=O)Nc1ccc(-n2[nH]c3c(nnc4ccccc43)c2=O)cc1 [Example 142],< 1
8,O=C(NCCCc1ccccc1)c1ccc(-n2[nH]c3c(nnc4ccccc43)c2=O)cc1 [Example 41],1 to 10
9,CCOC(=O)C(C)NC(=O)Nc1ccc(-n2[nH]c3c(nnc4ccccc43)c2=O)cc1 (centres unmarked) [Example 158],1 to 10
10,CC(C)OCCCNC(=O)Nc1ccc(-n2[nH]c3c(nnc4ccccc43)c2=O)cc1 [Example 149],1 to 10
11,CC(C)CCC(C)NC(=O)c1ccc(-n2[nH]c3c(nnc4ccccc43)c2=O)cc1 (centres unmarked) [Example 96],1 to 10
12,O=C(NCCCCc1ccccc1)c1ccc(-n2[nH]c3c(nnc4ccccc43)c2=O)cc1 [Example 73],1 to 10
13,O=C(Nc1ccc(-n2[nH]c3c(nnc4ccccc43)c2=O)cc1)NC1CCC(O)CC1 (centres unmarked) [Example 190],1 to 10
14,O=C(NCCCNC1CCCCC1)Nc1ccc(-n2[nH]c3c(nnc4ccccc43)c2=O)cc1 [Example 134],< 1
15,CCCCOCCCNC(=O)Nc1ccc(-n2[nH]c3c(nnc4ccccc43)c2=O)cc1 [Example 160],> 10
16,O=C(NCCc1cccnc1)c1ccc(-n2[nH]c3c(nnc4ccccc43)c2=O)cc1 [Example 95],< 1

# Now from value to molecule:
row,EC50 [µM],SMILES
1,1 to 10,CCC(CC)NC(=O)Nc1ccc(-n2[nH]c3c(nnc4ccccc43)c2=O)cc1 [Example 187]
2,> 10,CCCC(C)NC(=O)Nc1ccc(-n2[nH]c3c(nnc4ccccc43)c2=O)cc1 (centres unmarked) [Example 203]
3,1 to 10,COCC(C)NC(=O)Nc1ccc(-n2[nH]c3c(nnc4ccccc43)c2=O)cc1 (centres unmarked) [Example 174]
4,1 to 10,O=C(Nc1ccc(N2CCCCC2)cc1)c1ccc(-n2[nH]c3c(nnc4ccccc43)c2=O)cc1 [Example 98]
5,1 to 10,O=C(NCCc1ccncc1)Nc1ccc(-n2[nH]c3c(nnc4ccccc43)c2=O)cc1 [Example 184]
6,> 10,CC(NC(=O)Nc1ccc(-n2[nH]c3c(nnc4ccccc43)c2=O)cc1)C1CCCCC1 (centres unmarked) [Example 194]
7,1 to 10,O=C(NCCCO)c1ccc(-n2[nH]c3c(nnc4ccccc43)c2=O)cc1 [Example 111]
8,< 1,O=C(NCCO)c1ccc(-n2[nH]c3c(nnc4ccccc43)c2=O)cc1 [Example 51]
9,> 10,CC1C(NC(=O)Nc2ccc(-n3[nH]c4c(nnc5ccccc54)c3=O)cc2)CC2CC1C2(C)C (centres unmarked) [Example 202]
10,1 to 10,CCCCC(C)NC(=O)Nc1ccc(-n2[nH]c3c(nnc4ccccc43)c2=O)cc1 (centres unmarked) [Example 207]

# Same assay, conditions: cell-free HTRF, concentration series 100 μM-1.7 nM, 4 hours at room temperature; read-out: Activity (EC50 in the HTRF assay)
row,SMILES,EC50 [µM]
1,O=C(NCCCC(F)F)c1ccc(-n2[nH]c3c(nnc4c(F)cccc43)c2=O)cc1 [Example 485],< 1
2,CN(CCCNC(=O)c1ccc(-n2[nH]c3c(nnc4c(F)cccc43)c2=O)cc1)c1ccccc1 [Example 438],1 to 10
3,CC(C)(C)CNC(=O)c1ccc(-n2[nH]c3c(nnc4c(F)cccc43)c2=O)cc1 [Example 455],< 1
4,NC(=O)CNC(=O)c1ccc(-n2[nH]c3c(nnc4c(F)cccc43)c2=O)cc1 [Example 491],< 1
5,O=C(NC1CCNCC1)c1ccc(-n2[nH]c3c(nnc4c(F)cccc43)c2=O)cc1 [Example 440],< 1
6,N#CCCNC(=O)c1ccc(-n2[nH]c3c(nnc4c(F)cccc43)c2=O)cc1 [Example 486],< 1
7,CC(C)CN(CCCCNC(=O)c1ccc(-n2[nH]c3c(nnc4c(F)cccc43)c2=O)cc1)CC(C)C [Example 476],< 1

# Further lines, results first:
row,EC50 [µM],SMILES
1,1 to 10,O=C(NC(CO)Cc1ccc(O)cc1)c1ccc(-n2[nH]c3c(nnc4c(F)cccc43)c2=O)cc1 (centres unmarked) [Example 511]
2,< 1,CC1CC(C)(C)C(CNC(=O)c2ccc(-n3[nH]c4c(nnc5c(F)cccc54)c3=O)cc2)C1N (centres unmarked) [Example 439]

# Same assay, conditions: inhibition of the CD80-CD28 interaction, 4 hours at room temperature; read-out: EC50 activity in the HTRF assay
row,EC50 [µM],SMILES
1,> 10,"O=C(O)c1ccc(-n2[nH]c3c(nnc4c(F)cccc43)c2=O)cc1 [Example 5, 4-(6-fluoro-3-oxo-1,3-dihydro-2H-pyrazolo[4,3-c]cinnolin-2-yl)benzoic acid]"

# Source: patent US8309552B2, “Immunomodulating heterocyclic compounds” (Medigene AG, priority 2003, dated 2012)
